{"source": "patent US20090221615A1", "about": "“COMBINATION ANTI-CANCER AGENTS” (priority 2008, published 2009)", "key": {"[1]": {"assay": "Body weight change in the H460 xenograft study", "type": "in vivo, CD-1 nude mice", "details": "28-day period; Pemetrexed i.p. 200 mg/kg, Lucanthone oral 80 mg/kg, once every 4 days x7; vehicles −2.9%", "protocol": "(§1) Methods: Groups of CD-1 nude mice were xenografted subcutaneously with human H460 non-small cell lung carcinoma cells. Treatments were initiated when tumor growth reached approximately 130 mm^3. Treatments were administered 7 times at frequency of once every 4 days and included vehicles, Pemetrexed given intraperitoneally at 200 mg/kg, Lucanthone given orally at 80 mg/kg, and the combinations of Pemetrexed and Lucanthone at the same doses. The tumor growths and body weight change were followed for 28 days."}, "[2]": {"system": "human H460 non-small cell lung carcinoma cells", "assay": "H460 non-small cell lung carcinoma xenograft tumor growth in CD-1 nude mice", "type": "in vivo", "details": "28 days, 7 treatments once every 4 days, Pemetrexed i.p. 200 mg/kg, Lucanthone oral 80 mg/kg", "protocol": "as §1"}}}
{"molecule": "Nc1nc2[nH]cc(CCc3ccc(C(=O)N[C@@H](CCC(=O)O)C(=O)O)cc3)c2c(=O)[nH]1", "note": "[Pemetrexed, N-[4-[2-(2-amino-4,7-dihydro-4-oxo-1H-pyrrolo[2,3-d]pyrimidin-5-yl)ethyl]-benzoyl]-L-glutamic acid]", "values": [{"measurement": "body weight changes excluding the tumor weights", "setting": "[1]", "result": "−0.9", "unit": "%"}, {"measurement": "growth inhibition compared to the vehicle-treated group", "setting": "[2]", "result": 33, "unit": "%"}, {"measurement": "fold of increases of the tumor volume", "setting": "[2]; vehicles 42", "result": 28, "unit": "fold"}]}
